Results: the Kinase Knowledgebase extract (Sharma et al. 2016)

What was measured:
EGFR = EGFR (UniProt P00533)
EGFR (murine) = EGFR (murine) (UniProt P00533); conditions: nih3t3
EGFR (murine), sequence (P00533 whole entry, looked up): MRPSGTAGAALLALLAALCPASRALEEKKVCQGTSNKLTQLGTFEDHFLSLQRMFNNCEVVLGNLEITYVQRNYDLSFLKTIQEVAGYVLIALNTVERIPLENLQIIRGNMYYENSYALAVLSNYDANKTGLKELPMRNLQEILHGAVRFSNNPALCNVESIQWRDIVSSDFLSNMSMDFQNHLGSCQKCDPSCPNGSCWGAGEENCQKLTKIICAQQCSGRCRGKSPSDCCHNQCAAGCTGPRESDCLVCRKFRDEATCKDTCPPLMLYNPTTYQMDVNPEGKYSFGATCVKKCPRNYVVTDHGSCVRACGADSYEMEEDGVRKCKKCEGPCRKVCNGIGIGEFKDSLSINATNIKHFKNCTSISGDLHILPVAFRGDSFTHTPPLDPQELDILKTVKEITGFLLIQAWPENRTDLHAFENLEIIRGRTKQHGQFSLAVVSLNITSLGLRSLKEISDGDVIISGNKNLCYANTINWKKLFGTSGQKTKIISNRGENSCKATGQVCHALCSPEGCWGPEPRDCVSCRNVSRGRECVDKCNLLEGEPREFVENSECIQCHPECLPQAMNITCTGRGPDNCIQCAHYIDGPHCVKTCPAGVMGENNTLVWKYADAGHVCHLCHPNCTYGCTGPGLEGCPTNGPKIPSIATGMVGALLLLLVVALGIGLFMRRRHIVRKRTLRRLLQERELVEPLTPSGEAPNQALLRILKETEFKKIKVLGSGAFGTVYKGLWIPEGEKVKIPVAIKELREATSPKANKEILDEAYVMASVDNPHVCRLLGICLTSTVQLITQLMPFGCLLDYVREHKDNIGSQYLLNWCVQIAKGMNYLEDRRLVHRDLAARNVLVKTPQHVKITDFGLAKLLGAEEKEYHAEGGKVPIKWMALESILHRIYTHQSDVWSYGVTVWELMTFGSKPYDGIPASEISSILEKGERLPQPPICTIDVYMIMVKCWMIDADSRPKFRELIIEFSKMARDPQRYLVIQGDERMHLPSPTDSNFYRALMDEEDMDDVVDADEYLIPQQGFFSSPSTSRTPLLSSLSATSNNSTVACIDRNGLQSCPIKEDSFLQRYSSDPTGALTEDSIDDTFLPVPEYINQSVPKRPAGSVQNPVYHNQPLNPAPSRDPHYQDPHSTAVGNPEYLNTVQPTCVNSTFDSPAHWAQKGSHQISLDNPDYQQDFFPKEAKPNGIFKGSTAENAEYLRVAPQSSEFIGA

EGFR, sequence (P00533 whole entry, looked up): as above

| SMILES | IC50 (EGFR) | IC50 (EGFR (murine)) |
| --- | --- | --- |
| COc1ccc(/C(=C2/C(=O)Nc3ccccc32)c2[nH]c(C)cc2C)cc1 |  | > 50 µM |
| O=C(Nc1ccc2c(c1)NC(=O)C2Cc1cc(Cl)ccc1O)C1CCCC1 (configuration not stated) | > 100 µM |  |
| O=C1Nc2cccc(CCO)c2/C1=C/c1ccccn1 | > 100 µM | 3 µM |
| O=C1Nc2ccc(F)cc2C1Cc1ccc(O)c(C2CCCC2)c1 (configuration not stated) | > 100 µM | > 50 µM |
| CC(C)c1cc(CC2C(=O)Nc3ccc(Cl)cc32)cc(C(C)C)c1OCCN1CCOCC1 (configuration not stated) | > 100 µM |  |
| O=C1Cc2c(CCOC(=S)Nc3ccccc3)cccc2N1 | > 100 µM |  |
| O=C1Nc2cc(-c3ccccc3)ccc2C1Cc1cc(Br)ccc1O (configuration not stated) | > 100 µM |  |
| Cc1[nH]c(/C=C2\C(=O)Nc3cccc(CCOc4cccc(C(C)C)c4)c32)c(C)c1CCCN(C)C | > 100 µM |  |
| CC(C)(C)NC(=O)OCCc1cccc2c1CC(=O)N2 | > 100 µM |  |
| COc1ccc(CC2C(=O)Nc3ccc(F)cc32)cc1C1CCCC1 (configuration not stated) | > 100 µM |  |
| COc1ccc2c(c1)NC(=O)C2Cc1ccc(OC)c(-c2ccsc2)c1 (configuration not stated) | > 100 µM |  |
| COc1cccc(-c2ccc3c(c2)NC(=O)C3Cc2ccccc2O)c1 (configuration not stated) | > 100 µM | > 50 µM |
| O=C1Nc2cc(-c3ccccc3)ccc2C1Cc1cccc(F)c1O (configuration not stated) | > 100 µM | > 50 µM |
| O=C1Nc2cccc(CCO)c2C1Cc1ccc(Br)cc1 (configuration not stated) | > 100 µM |  |
| COc1ccc(/C=C2/C(=O)Nc3cc(-c4cccs4)ccc32)cc1-c1cccs1 | > 100 µM |  |
| COc1ccc(OCCc2cccc3c2CC(=O)N3)cc1 | > 100 µM |  |
| CC(C)(C)c1cc(CC2C(=O)Nc3ccc(Cl)cc32)cc(Br)c1O (configuration not stated) | > 100 µM |  |
| Cc1cccc2c1C(Cc1ccc3[nH]ccc3c1)C(=O)N2 (configuration not stated) | > 100 µM | > 50 µM |

| SMILES | IC50 (EGFR) | IC50 (EGFR (murine)) |
| --- | --- | --- |
| O=C1Nc2cccc(CCO)c2C1Cc1ccccc1 (configuration not stated) | > 100 µM |  |
| COc1ccc(/C=C2/C(=O)Nc3cc(-c4cccnc4)ccc32)cc1-c1cccs1 | > 100 µM |  |
| O=C1Nc2cccc(CCO)c2/C1=C/c1ccc2[nH]ccc2c1 | > 100 µM |  |
| O=C1Cc2c(CCOc3cccc(-c4ccccc4)c3)cccc2N1 | > 100 µM |  |
| Cc1[nH]c(CC2C(=O)Nc3ccccc32)c(C)c1CCCN(C)C (configuration not stated) | > 100 µM | > 50 µM |
| COc1cc(C)c(CC2C(=O)Nc3ccccc32)cc1C(C)C (configuration not stated) | > 100 µM |  |
| CC(=O)Nc1ccc2c(c1)NC(=O)C2Cc1ccc(OCCN2CCOCC2)c(C2CCCCC2)c1 (configuration not stated) | > 100 µM |  |
| Cc1[nH]c(/C=C2\C(=O)Nc3cccc(CCOc4ccc(C(C)C)cc4)c32)c(C)c1CCC(=O)O | > 100 µM | > 50 µM |
| COc1ccc(CC2C(=O)Nc3cc(-c4ccccc4)ccc32)c(O)c1 (configuration not stated) | > 100 µM | > 50 µM |
| Cc1ccc(O)c(/C=C2\C(=O)Nc3cccc(CCO)c32)n1 | > 100 µM | > 50 µM |
| COc1ccc(CC2C(=O)Nc3cc(NC(C)=O)ccc32)cc1-c1cccs1 (configuration not stated) | > 100 µM | > 50 µM |
| O=C1Nc2ccccc2C1Cc1ccc2[nH]ccc2c1 (configuration not stated) | > 100 µM | > 50 µM |
| O=C1Cc2c(CCOC(=O)Nc3ccccc3)cccc2N1 | > 100 µM |  |
| Cc1[nH]c(CC2C(=O)Nc3ccc(Br)cc32)c(C)c1CCCN(C)C (configuration not stated) | > 100 µM |  |
| COc1ccc(/C=C2\C(=O)Nc3cccc(CCO)c32)cc1-c1cccs1 | > 100 µM |  |
| Cc1cccc(CC2C(=O)Nc3cccc(CCO)c32)n1 (configuration not stated) | > 100 µM | > 50 µM |
| COc1ccccc1-c1ccc2c(c1)NC(=O)C2Cc1[nH]c(C)c(CCCN(C)C)c1C (configuration not stated) | > 100 µM |  |

More lines, now with the values ahead:

| IC50 (EGFR) | IC50 (EGFR (murine)) | SMILES |
| --- | --- | --- |
| > 100 µM |  | CCOCCc1cccc2c1CC(=O)N2 |
| > 100 µM |  | Cc1cccc(/C=C2\C(=O)Nc3cccc(CCO)c32)n1 |
| > 100 µM |  | O=C1Cc2c(CCOC(=O)NS(=O)(=O)c3ccccc3)cccc2N1 |
| > 100 µM |  | Cc1[nH]c(/C=C2/C(=O)Nc3cc(-c4cccs4)ccc32)c(C)c1CCCN(C)C |
| > 100 µM |  | CCNC(=O)OCCc1cccc2c1CC(=O)N2 |
| > 100 µM |  | O=C1Nc2cc(-c3cccs3)ccc2/C1=C\c1ccccc1O |
| > 100 µM | > 50 µM | COc1c(C(C)C)cc(CC2C(=O)Nc3ccccc32)cc1C(C)C (configuration not stated) |
| > 100 µM |  | COc1ccc(-c2ccc3c(c2)NC(=O)C3Cc2[nH]c(C)c(CCCN(C)C)c2C)cc1 (configuration not stated) |
| > 100 µM |  | O=C1Cc2c(CCOc3cncc(Cl)c3)cccc2N1 |
| > 100 µM | > 50 µM | COc1ccc(CC2C(=O)Nc3ccc(CCN4CCOCC4)cc32)cc1-c1ccsc1 (configuration not stated) |
| > 100 µM |  | Cc1[nH]c(CC2C(=O)Nc3ccc(Cl)cc32)c(C)c1CCCN(C)C (configuration not stated) |
| > 100 µM |  | O=C1Nc2cccc(CCO)c2/C1=C\c1ccc(Br)cc1 |
| > 100 µM |  | O=C1Nc2cc(-c3ccsc3)ccc2/C1=C\c1ccccc1O |
| > 100 µM |  | O=C(Nc1ccc2c(c1)NC(=O)C2Cc1cc(Cl)cc(Cl)c1O)C1CCCC1 (configuration not stated) |
| > 100 µM |  | COc1ccc(-c2cc(CC3C(=O)Nc4ccccc43)c(O)cc2OC)cc1 (configuration not stated) |
| 12.1 µM |  | Cc1[nH]c(/C=C2/C(=O)Nc3cc(-c4cccnc4)ccc32)c(C)c1CCCN(C)C |
| > 100 µM |  | CC(C)c1ccc(OCCc2cccc3c2CC(=O)N3)cc1 |
| > 100 µM |  | CC(C)c1ccccc1OCCc1cccc2c1CC(=O)N2 |
| > 100 µM |  | CC(C)c1cccc(OCCc2cccc3c2CC(=O)N3)c1 |
| > 100 µM | 25.3 µM | Cc1[nH]c(/C=C2\C(=O)Nc3cccc(CCO)c32)c(C)c1CCCN(C)C |
| > 100 µM |  | O=C1Nc2cc(-c3cccnc3)ccc2/C1=C\c1ccccc1O |
| > 100 µM |  | COc1ccc(/C=C2/C(=O)Nc3cc(-c4ccsc4)ccc32)cc1-c1cccs1 |
| > 100 µM |  | O=C1Cc2c(CCOC(=O)Nc3ccccc3-c3ccccc3)cccc2N1 |
| > 100 µM |  | CC(C)NC(=O)OCCc1cccc2c1CC(=O)N2 |
| > 100 µM |  | COCCc1cccc2c1CC(=O)N2 |
| > 100 µM |  | O=C1Cc2c(CCOC(=O)NC3CCCCC3)cccc2N1 |
| 48.7 µM |  | COc1cccc(-c2ccc3c(c2)NC(=O)C3Cc2[nH]c(C)c(CCCN(C)C)c2C)c1 (configuration not stated) |
